Data reported in US11472862B2, “IL13Rα2 peptide and its uses” (priority 2017, dated 2022).
Non-standard residues stand in square brackets, D forms with d. No end group written: not given here.

Key:
KM12SM cells [1] = assay: Metastasis experiment in nude mice, Kaplan-Meier survival after intrasplenic inoculation; assay type: in vivo, Swiss nude mice
Procedure: (§1) FIG. 6. D1 and D-D1 peptides increase the survival of mice inoculated with metastatic tumor cells and inhibits glioblastoma xenografts. (A) Liver homing experiment. Metastatic KM12SM cells were treated with the IL13 and/or D1 peptide and inoculated in spleen of nude mice. […] (C) 10^7 U251 cells were inoculated subcutaneously into the flanks of mice. Eleven days after cell inoculation, when tumours reached a size of 100 mm^3, mice were treated with D-D1 peptide (3 μg/100 μL of PBS) subcutaneously or with saline solution in a total of 7 doses during 15 days. Tumours were measured every 2-3 days. **p<0.01 vs control.
Binding of D1 peptide to IL-13 was monitored by surface plasmon resonance on a BIAcore 3000 instrument (BIAcore Inc, Switzerland). IL-13 was covalently amino coupled to a CM-5 sensor chip. An immobilization level of 7700 RU was obtained. A nonderivatized flow cell was used as a control. The interaction between D1 peptide and the immobilized IL13 was determined by changes in the RU at different D1 concentrations. Cell Signaling Analysis Cancer cells were incubated 3 h in DMEM without serum, detached with 2 mM EDTA, washed and treated with IL-13 (PeproTech) (10 ng/ml) for different times in presence or absence of IL13Rα2D1 peptide. Then, cells were lysed with lysis buffer (1% Igepal, 50 mM Tris-HCl, 100 mM NaCl, 2 mM MgCl2, 10% glycerol, protease inhibitors (Complete Mini, Roche) and phosphatase inhibitor cocktails 2 and 3 (Sigma-Aldrich)). Protein extracts (60 μg) were separated in SDS-PAGE and transferred to nitrocellulose membranes, which were incubated with primary antibodies, washed and incubated with HRP-conjugated secondary antibodies (Sigma-Aldrich). […] Proliferation Assays Cancer cells were seeded at 1×10^4 cells/well on 96-well plates and were incubated for 48 h at 37° C. in DMEM with 0.5% serum in presence of IL-13 (10 ng/ml) and the indicated peptides, followed by 1 h incubation with Thyazolyl Blue Tretrazolium Bromide (MTT) (0.6 mg/mL) (Sigma-Aldrich). Cell proliferation was determined by absorbance at 560 nm and comparison with control cells collected ab initium. Cell Adhesion Assays Cancer cells were starved for 3 h, labeled with BCECF-AM (Molecular Probes), detached with EDTA/PBS and incubated in DMEM in the presence of IL-13 and the indicated peptides for 10 min at 37° C. Then, 6×10^4 cells in 100 μL were added to 96-well plates previously coated with Matrigel (0.4 μg/mm^2), and the plates were incubated for 25 min at 37° C. Subsequently, non-adhered cells were removed by three washes with DMEM. Bound cells were lysed with 1% SDS in PBS, and the extent of the adhesion was quantified using a fluorescence analyzer (POLARstar Galaxy, BMG Labtechnologies). Wound Healing Assays Cancer cells were cultured to confluence in Matrigel-coated plates (0.4 μg/mm^2), and a 1 mm-wide wound was done across the monolayer, which was incubated in serum-free medium alone or with IL-13 (10 ng/mL), in the presence or absence of the indicated peptides. Pictures were taken immediately and after 24 h culture at 37° C. after the injury. Effective migration speed was calculated from the distance covered by cells in 24 h in each side of the wound. Invasion Assays For Matrigel invasion assays, 6×10^4 cells were loaded onto […] pore-size filters coated with […] of Matrigel (1:3 dilution; BD Biosciences) in Transwell plates (Costar) in presence of the indicated peptides. The lower compartment of the invasion chamber was filled with IL-13 (10 ng/mL). After 48 h, non-invading cells were removed from the upper surface of the filter, and cells that migrated through the filter were fixed with 4% paraformaldehyde (Sigma-Aldrich), stained with crystal violet and counted under a microscope. […] Swiss nude mice (Charles River) (n=5 per condition) were inoculated in the spleen with 1.5×10^6 KM12SM cells in 0.1 mL PBS in presence or absence of the indicated peptides (1 μg/mL). A day after inoculation, mice were subjected to removal of the spleen. […]

[2] = tested on: U251 glioblastoma xenografts; assay: Glioblastoma xenograft tumour growth; assay type: in vivo, mice; settings: 3 μg/100 μL PBS subcutaneously, 7 doses during 15 days, start at 100 mm^3; p<0.01 vs control
Procedure: as §1
Additionally, the capacity of the D-D1 peptide to inhibit tumour growth in U251 glioblastoma xenografts was tested. For glioblastoma xenografts, 10^7 U251 cells were inoculated subcutaneously into the flanks of mice. Eleven days after cell inoculation, when tumours reached a size of 100 mm^3, mice were treated with D-D1 peptide (3 μg/100 μL of PBS) subcutaneously or with saline solution in a total of 7 doses during 15 days. Tumours were measured every 2-3 days.

KM12SM cells [3] = assay: Cell adhesion assay to Matrigel; assay type: cell-based, human; settings: with IL-13, peptide 1 μg/ml
Procedure: (§2) Recombinant human IL13 was used at […] (13) and was purchased from PeproTech. IL13Rα2-derived peptides (IL13Rα2D1: GSETWKTIITKN, SEQ ID NO: 3; IL13Rα2D1S: WKTIITKN, SEQ ID NO: 1; IL13Rα2Nter: FEIVDPGY, SEQ ID NO: 14; IL13Rα2Cter WSIPLGPI, SEQ ID NO: 15; IL13Rα2D1S-1A: WATIITKN, SEQ ID NO: 16; IL13Rα2D1S-2A WKAIITKN, SEQ ID NO: 17; IL13Rα2D1S-3A WKTAITKN, SEQ ID NO: 18; IL13Rα2D1S-4A WKTIATKN, SEQ ID NO: 19; IL13Rα2D1S-5A WKTIIAKN, SEQ ID NO: 20; IL13Rα2D1S-6A WKTIITAN, SEQ ID NO: 21) were synthesized using solid phase chemistry with a Focus XC instrument (AAPPtec). The enantio version D-IL13Rα2D1 (D-D1) peptide (GSETWKTIITKN, SEQ ID NO: 3) composed entirely by D-amino acids was purchased from Proteogenix (Schiltigheim, France). […]
(§3) Binding of D1 peptide to IL-13 was monitored by surface plasmon resonance on a BIAcore 3000 instrument (BIAcore Inc, Switzerland). […] The interaction between D1 peptide and the immobilized IL13 was determined by changes in the RU at different D1 concentrations. […] Cell proliferation was determined by absorbance at 560 nm and comparison with control cells collected ab initium. […] Bound cells were lysed with 1% SDS in PBS, and the extent of the adhesion was quantified using a fluorescence analyzer (POLARstar Galaxy, BMG Labtechnologies). […] Effective migration speed was calculated from the distance covered by cells in 24 h in each side of the wound. […]

KM12SM cells [4] = assay: MTT proliferation assay; assay type: cell-based, human; settings: with IL-13, peptide 1 μg/ml, 48 h
Procedure: as §2, §3

KM12SM cells [5] = assay: Cell invasion assay through Matrigel; assay type: cell-based, human; settings: with IL-13, peptide 1 μg/ml, 48 h
Procedure: as §2, §3

GSETWKTIITKN (G[dS][dE][dT][dW][dK][dT][dI][dI][dT][dK][dN]) [D-D1 peptide]
Mice surviving the experimental endpoint, without further treatment (KM12SM cells [1]; KM12SM intrasplenic, cells with peptide 1 μg/ml only, n=5 per condition): one | Metastatic lesions in surviving mice, without further treatment (KM12SM cells [1]; KM12SM intrasplenic, cells with peptide only): without lesions | Mice surviving the experimental endpoint, with peptide treatment (KM12SM cells [1]; KM12SM intrasplenic, cells with peptide plus 7 i.v. doses of 3 μg, n=5 per condition): two | Metastatic lesions at necropsy in surviving mice, with peptide treatment (KM12SM cells [1]; KM12SM intrasplenic, cells with peptide plus i.v. treatment): no metastatic lesions at the necropsy | Mouse survival, cells inoculated with peptide plus intravenous peptide treatment (KM12SM cells [1]; KM12SM intrasplenic, peptide 1 μg/ml with the cells, then 7 i.v. doses of 3 μg over 2 weeks, n=5): remarkable increase in survival | Mouse survival, cells inoculated with peptide, without further treatment (KM12SM cells [1]; KM12SM intrasplenic, peptide 1 μg/ml with the cells, n=5): significant increase | Change of survival of treated mice (KM12SM cells [1]; KM12SM metastasis model, treated mice versus control): more than doubling the survival | Tumour growth of U251 xenografts [2]: significant growth arrest accompanied by a regression in the tumour size | Inhibition of IL-13-stimulated cell adhesion to Matrigel (KM12SM cells [3]): inhibit cell adhesion, invasion and proliferation | Inhibition of IL-13-stimulated cell proliferation (MTT) (KM12SM cells [4]): inhibit cell adhesion, invasion and proliferation | Inhibition of IL-13-stimulated cell invasion through Matrigel (KM12SM cells [5]): inhibit cell adhesion, invasion and proliferation
